System: K562
Test: Cytotoxicity against K562 leukemia cells in vitro, expressed as the minimal concentration necessary to inhibit incorporation of [3H]thymidine by 50%
Assay type: functional, cell-based
Conditions: Homo sapiens, K562, 48 h

Structure (SMILES)	IC50 [nM]
CCCONc1cc(C(=O)Nc2cc(C(=O)Nc3cc(C(=O)Nc4ccc(N(CCCl)CCCl)cc4)n(C)c3)n(C)c2)n(C)c1	30
CCCONc1cc(C(=O)Nc2cc(C(=O)Nc3ccc(N(CCCl)CCCl)cc3)n(C)c2)n(C)c1	250
CCCC(=O)Nc1cc(/C=C/C(=O)Nc2cc(C(=O)Nc3ccc(N(CCCl)CCCl)cc3)n(C)c2)n(C)c1	210
CCCC(=O)Nc1cc(/C=C/C(=O)Nc2ccc(N(CCCl)CCCl)cc2)n(C)c1	1200
CCCONc1cc(C(=O)Nc2ccc(N(CCCl)CCCl)cc2)n(C)c1	950
O=C(O)CCCc1ccc(N(CCCl)CCCl)cc1 [CHLORAMBUCIL]	35000

Source: ChEMBL document CHEMBL1136552, “Synthesis and preliminary cytotoxicity of nitrogen mustard derivatives of distamycin A” (Bioorg Med Chem Lett, 2003)
